# Residue numbers refer to the chain shown, from its start.
# Columns and labels:
# Test in all cases: whole-cell patch clamp, HEK293T
# Type in all cases: cell-based
# AtCLCa [1] = biological target: T1, AtCLCa (Arabidopsis thaliana, UniProt P92941, E55A/S56A); conditions: 5 mM in pipette (cytosolic side); nitrate bath; pH 7.4
# T1 construct: gene CLC-A; full-length, homodimer; structures: Pichia pastoris GS115, C-terminal GFP-6xHis tag cut by TEV, MSP1D1 nanodiscs; patch clamp: pKH3 vector in HEK293T
# T1 sequence (P92941 1-775 E55A/S56A): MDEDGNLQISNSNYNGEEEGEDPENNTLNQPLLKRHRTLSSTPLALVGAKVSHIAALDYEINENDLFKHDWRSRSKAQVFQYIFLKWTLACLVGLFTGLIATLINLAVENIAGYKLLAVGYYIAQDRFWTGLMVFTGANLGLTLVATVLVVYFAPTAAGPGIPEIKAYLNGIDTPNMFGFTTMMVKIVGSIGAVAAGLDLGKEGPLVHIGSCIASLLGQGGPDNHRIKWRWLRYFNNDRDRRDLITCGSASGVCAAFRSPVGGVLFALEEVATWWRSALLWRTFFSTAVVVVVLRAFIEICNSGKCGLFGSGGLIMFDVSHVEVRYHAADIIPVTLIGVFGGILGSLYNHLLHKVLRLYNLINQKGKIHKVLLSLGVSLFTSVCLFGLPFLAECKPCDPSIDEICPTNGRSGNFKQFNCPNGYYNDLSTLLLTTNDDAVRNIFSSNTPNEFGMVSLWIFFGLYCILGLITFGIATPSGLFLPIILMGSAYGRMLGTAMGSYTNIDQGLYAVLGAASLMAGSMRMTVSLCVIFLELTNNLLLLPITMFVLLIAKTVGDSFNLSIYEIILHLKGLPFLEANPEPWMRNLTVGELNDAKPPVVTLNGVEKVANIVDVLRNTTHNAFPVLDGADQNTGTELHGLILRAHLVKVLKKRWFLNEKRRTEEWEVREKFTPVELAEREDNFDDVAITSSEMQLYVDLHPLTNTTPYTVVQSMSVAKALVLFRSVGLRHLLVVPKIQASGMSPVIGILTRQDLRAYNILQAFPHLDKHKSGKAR
# AtCLCa [2] = biological target: T2, AtCLCa (Arabidopsis thaliana, UniProt P92941, D753A); conditions: 5 mM in pipette (cytosolic side); nitrate bath; pH 7.4
# T2 construct: gene CLC-A; full-length, homodimer; structures: Pichia pastoris GS115, C-terminal GFP-6xHis tag cut by TEV, MSP1D1 nanodiscs; patch clamp: pKH3 vector in HEK293T
# T2 sequence (P92941 1-775 D753A): T1 sequence (P92941 1-775 E55A/S56A) with A55E, A56S, D753A
# AtCLCa [3] = biological target: T3, AtCLCa (Arabidopsis thaliana, UniProt P92941); parameters: gene CLC-A; full-length, homodimer; patch clamp: pKH3 vector in HEK293T; conditions: 5 mM in pipette (cytosolic side); nitrate bath; pH 7.4; 5 mM MgCl2; room temperature
# T3 sequence (P92941 1-775): T1 sequence (P92941 1-775 E55A/S56A) with A55E, A56S
compound,measurement,setting,value
Nc1ncnc2c1ncn2[C@@H]1O[C@H](COP(=O)(O)OP(=O)(O)OP(=O)(O)O)[C@@H](O)[C@H]1O [ATP],inhibition of NO3^- currents at 5 mM,AtCLCa [1],(E55A/S56A) can completely abolish the inhibitory effect of ATP
same,inhibition of NO3^- currents at 5 mM,AtCLCa [2],D753A mutant impairs the inhibition of ATP
same,decrease of NO3^- currents at 5 mM,AtCLCa [3],led to a decrease of approximately half of the NO3^− currents induced by wild-type AtCLCa

# Reference: paper PMC10423218, “Molecular mechanism underlying regulation of Arabidopsis CLCa transporter by nucleotides and phospholipids” (Nature Communications, 2023)
